Reference: paper PMC6826616, “Topical 2′-Hydroxyflavanone for Cutaneous Melanoma” (Cancers, 2019)
Read-outs that look alike come from different tables or passages of the source.

Key:
B16-F10 cells [1] = experiment: MTT cytotoxicity assay, B16-F10; assay type: cell-based; settings: Mus musculus
Text: We studied the growth-inhibitory effects of 2HF on the B16-F0 and B16-F10 murine melanoma cell lines as well as on the SK-MEL-24 human melanoma cell line. B16-F10 and SK-MEL-24 have been shown in previous studies to be highly resistant to treatment and much more invasive than B16-F0 [32]. […] The absorption value measured upon reduction of the MTT dye by functional mitochondria is an indirect measure of cell number that cannot distinguish inhibited cell proliferation from apoptotic or necrotic cell death. By counting viable (trypan-blue dye-excluding) cells using a hemacytometer, we verified that 2HF did indeed cause cell death.
Figure 1 Mouse and human melanoma cell survival following 2′-hydroxyflavanone (2HF) treatment.
The IC50 of 2HF on B16-F0, B16-F10, and SK-MEL-24 cells was determined by MTT cytotoxicity assay. Cells were harvested and Trypan Blue dye exclusion test was used to determine the number of viable cells present in a cell suspension using a hemocytometer. The cell suspension was diluted to 5 × 10^4 cells/mL with Dulbecco’s Modified Eagle’s Medium (DMEM) complete medium and 5000 cells/well were plated in 96-well plates. After 24 h incubation at 37 °C, cells were treated with 2HF concentrations ranging from 0–200 µM (8 replicates per plate). After 48 or 72 h incubation, 40 µL of MTT (5 mg/mL) solution was added. After 4 h incubation, the plate was centrifuged at 700× g for 5 min and medium was aspirated completely. Then, 50 µL DMSO was added to each well to dissolve the purple precipitate on the rocking platform for about 15 min. The absorbance was then measured at 490 nm using a 96-well microplate reader (Spectramax Plus, Molecular Devices, Inc, San Jose, CA, USA).

B16-F10 cells [2] = experiment: Western blot densitometry of whole-cell lysates, B16-F10; assay type: cell-based, mouse; settings: 48 h
Procedure: […] Cells were harvested and lysates prepared for Western blot using a radioimmunoprecipitation assay (RIPA) buffer with a protease (complete ULTRA) and phosphatase inhibitor (PhosSTOP) cocktail (Sigma-Aldrich, St. Louis, MO, USA). […] Proteins were transferred to nitrocellulose membrane, and nonspecific binding was minimized with 1× clear milk blocking buffer +0.1%TWEEN 20 (ThermoFisher Scientific, Waltham, MA, USA) for 1 h at room temperature. All primary antibodies were purchased from Santa Cruz Biotechnology except mouse monoclonal, TNF-α (Invitrogen), (1:1000), in 1× clear milk +0.1% TWEEN 20 overnight at 4 °C. Secondary antibody from Santa Cruz Biotech (1:2000) was incubated for 1 h at room temperature in 1× clear milk, 0.1% TWEEN 20.
(§1) Supplemental data for Fig. 2C. Caspase 9
(§2) Numbers below of each blot represent protein 1.0 1.2 0.5 ND ND ND ND ND ND band intensity ratios to adequate controls after Procaspase 3 […]
(§3) RAL BP- 1 and apoptosis enzymes in SK-Mel-24, B16F0 17kD Active caspase 3 […]
(§4) 48h. Cells were plated in complete growth medium. After overnight, cells were treated with different doses of 2HF, and PARP-1 incubated for 48h. Total cell lysates (40 µg/lane) were […]
(§5) buffer. Proteins were transferred to nitrocellulose C-terminal cleaved membrane, nonspecific binding was done in 1X clear milk, PARP~89kDa
(§6) +0.1%T20 (Invitrogen) for 1h at room temperature. All primary antibodies were from (mouse monoclonal, 1.0 0.8 0.9 1.0 0.9 ND 1.0 1.1 ND Santacruze Biotechnology (1:1000), in 1X clear milk
(§7) +0.1%T20 overnight in 40C. Secondary antibody from N-terminal cleaved
(§8) Santacruze Biotech (1:2000) for 1h at room temperature in PARP~24kDa […]
(§9) Supplemental Figure 7 Supplemental data for Fig. 5.
(§10) B16F0 SK-Mel- 24 B16F10Numbers below of each blot represent protein band intensity ratios to adequate
(§11) TNF-α Full blots are presented in next 4 figures. […]
(§12) cells after treatment with 50, 100 µM 2HF for 48h.
(§13) Raf-1 Raf-1 Cells were plated in complete growth medium. After overnight, cells were treated with different doses of 2HF, […]
(§14) loaded on 4- 12% bis-tris gel, with 1X MES gel running p-MEK-1 p-MEK-1 buffer. Proteins were transferred to nitrocellulose membrane, nonspecific binding was done in 1X clear
(§15) All primary antibodies were from (mouse monoclonal, MEKK15 MEKK15 except TNF-α (American Hamster), Santacruze
(§16) 1.0 0.9 0.1 ND ND ND overnight in 40C. Secondary antibody from Santacruze Biotech (1:2000) for 1h at room temperature in 1X clear […]

SK-MEL-24 cells = experiment: Western blot densitometry of whole-cell lysates, SK-MEL-24; assay type: cell-based, human; settings: 48 h
Procedure: as §1, §2, §3, §4, §5, §6, §7, §8, §9, §10, §11, §12, §13, §14, §15, §16

[3] = LC-MS/MS analysis of 2HF in serum after topical application; assay type: in vivo, C57BL/6 mice; settings: topical 12 mg 2HF/0.1 mL PLO gel each day for 8 weeks, blood within 2 h after final dosage
Procedure: C57BL/6 mice were administered either 0.1 mL PLO gel or 12 mg 2HF in 0.1 mL PLO gel topically each day for 8 weeks. On the last day, the blood was collected within 2 h after final dosage, and subjected to LC-MS/MS analyses according to established protocol. Briefly, serum from control and 2HF-treated mice was extracted twice with 500 µL ethyl acetate and the organic layers were collected and evaporated to dryness in a speed-vac. The residue was reconstituted in 40 µL methanol containing 0.1% formic acid (FA) for analysis. An LC-MS method was developed for the quantitative analysis of 2HF using an Agilent 6490 triple quadrupole coupled with an Agilent 1290 UHPLC system. In short, the binary pump delivered buffers A (0.1% FA in water) and buffer B (0.1% FA in acetonitrile) over 10 min with the following gradient: From 10% B to 20% B in 1 min, then ramp to 90% B at 6 min, 10% B at 8 min, 10% B at 8.5 min, column equilibration post analysis was 2 min. An Agilent Zorbax, 0.5 × 150 mm, 5 µm particle size was used for the separation at a flow rate of 50 µL/min.

2HF in serum [3]: 4.3 ± 0.4 µM
Compound: O=C1CC(c2ccccc2O)Oc2ccccc21 (stereo not shown) [2HF, 2′-hydroxyflavanone]
IC50 (B16-F10 cells [1]; MTT, 72 h, mean ±SD, n = 5, read-out: IC50 at 72 h (growth/survival)): 47 ± 6 µM
IC50 (B16-F10 cells [1]; Table 1, agent alone, read-out: IC50): 42 ± 1.83 µM
Active caspase 3 band intensity ratio to control (normalized against β-Actin) (B16-F10 cells [2]; B16F10, 50 µM 2HF): 1.0
C-terminal cleaved PARP~89kDa band intensity ratio to control (normalized against β-Actin) (B16-F10 cells [2]; B16F10, 50 µM 2HF): 1.1
N-terminal cleaved PARP~24kDa band intensity ratio to control (normalized against β-Actin) (B16-F10 cells [2]; B16F10, 50 µM 2HF): 1.1
PARP-1 band intensity ratio to control (normalized against β-Actin) (B16-F10 cells [2]; B16F10, 50 µM 2HF): 1.0
Procaspase 3 band intensity ratio to control (normalized against β-Actin) (B16-F10 cells [2]; B16F10, 50 µM 2HF): 0.9
RAL BP-1 band intensity ratio to control (normalized against β-Actin) (B16-F10 cells [2]; B16F10, 50 µM 2HF): 0.5
Raf-1 band intensity ratio to control (normalized against β-Actin) (B16-F10 cells [2]; B16F10, 50 µM 2HF): 0.5
PKC α band intensity ratio to control (normalized against β-Actin) (B16-F10 cells [2]; B16F10, 100 µM 2HF): 0.2
Procaspase 3 band intensity ratio to control (normalized against β-Actin) (B16-F10 cells [2]; B16F10, 100 µM 2HF): 0.1
TNF-α band intensity ratio to control (normalized against β-Actin) (B16-F10 cells [2]; B16F10, 100 µM 2HF): 0.3
Active caspase 3 band intensity ratio to control (normalized against β-Actin) (SK-MEL-24 cells; SK-Mel-24, 50 µM 2HF): 0.9
C-terminal cleaved PARP~89kDa band intensity ratio to control (normalized against β-Actin) (SK-MEL-24 cells; SK-Mel-24, 50 µM 2HF): 0.8
Caspase 9 band intensity ratio to control (normalized against β-Actin) (SK-MEL-24 cells; SK-Mel-24, 50 µM 2HF): 1.2
N-terminal cleaved PARP~24kDa band intensity ratio to control (normalized against β-Actin) (SK-MEL-24 cells; SK-Mel-24, 50 µM 2HF): 0.8
PARP-1 band intensity ratio to control (normalized against β-Actin) (SK-MEL-24 cells; SK-Mel-24, 50 µM 2HF): 0.7
Procaspase 3 band intensity ratio to control (normalized against β-Actin) (SK-MEL-24 cells; SK-Mel-24, 50 µM 2HF): 0.8
RAL BP-1 band intensity ratio to control (normalized against β-Actin) (SK-MEL-24 cells; SK-Mel-24, 50 µM 2HF): 0.4
Raf-1 band intensity ratio to control (normalized against β-Actin) (SK-MEL-24 cells; SK-Mel-24, 50 µM 2HF): 1.7
TNF-α band intensity ratio to control (normalized against β-Actin) (SK-MEL-24 cells; SK-Mel-24, 50 µM 2HF): 0.4
p-PDGFR-β band intensity ratio to control (normalized against β-Actin) (SK-MEL-24 cells; SK-Mel-24, 50 µM 2HF): 0.7
Active caspase 3 band intensity ratio to control (normalized against β-Actin) (SK-MEL-24 cells; SK-Mel-24, 100 µM 2HF): 1.1
C-terminal cleaved PARP~89kDa band intensity ratio to control (normalized against β-Actin) (SK-MEL-24 cells; SK-Mel-24, 100 µM 2HF): 0.9
Caspase 9 band intensity ratio to control (normalized against β-Actin) (SK-MEL-24 cells; SK-Mel-24, 100 µM 2HF): 0.5
N-terminal cleaved PARP~24kDa band intensity ratio to control (normalized against β-Actin) (SK-MEL-24 cells; SK-Mel-24, 100 µM 2HF): 0.4
PARP-1 band intensity ratio to control (normalized against β-Actin) (SK-MEL-24 cells; SK-Mel-24, 100 µM 2HF): 0.1
Procaspase 3 band intensity ratio to control (normalized against β-Actin) (SK-MEL-24 cells; SK-Mel-24, 100 µM 2HF): 0.5
RAL BP-1 band intensity ratio to control (normalized against β-Actin) (SK-MEL-24 cells; SK-Mel-24, 100 µM 2HF): 0.1
p-PDGFR-β band intensity ratio to control (normalized against β-Actin) (SK-MEL-24 cells; SK-Mel-24, 100 µM 2HF): 0.4
